Reference: ChEMBL document CHEMBL1201862, “PubChem BioAssay data set” (2004)
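In this assay, cells in 96-well plates receive the compound at five concentrations for 48 hours. Endpoints are linearly interpolated between the surrounding concentrations. GI50 is the concentration that inhibits growth by half.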 Calls of active or inactive are those of the source. No stated cut-off is given here; in the data, active = GI50 up to about 1.1 µM and inactive = higher. Where a SMILES comes first, the peptide text is derived from it. [ ]: non-standard residue; d: D form. The star is where a group is joined. Phe(4-NO2) = N[CH](Cc1ccc([N+](=O)[O-])cc1)C(=O)O; Boc = CC(C)(C)OC(=O)*; OBn = c1ccc(CO*)cc1

Assays:
Assay in all cases: DTP human tumour cell line panel, 48 h
MDA-MB-231 = test system: MDA-MB-231
HOP-92 = test system: HOP-92
HT-29 = test system: HT-29
SF-539 = test system: SF-539
SF-268 = test system: SF-268
UACC-62 = test system: UACC-62
SF-295 = test system: SF-295
K562 = test system: K562
RXF 393 = test system: RXF 393
MOLT-4 = test system: MOLT-4
HCT-15 = test system: HCT-15
SK-OV-3 = test system: SK-OV-3
T47D = test system: T47D
RPMI-8226 = test system: RPMI-8226
Hs-578T = test system: Hs-578T
UACC-257 = test system: UACC-257
786-0 = test system: 786-0
CAKI-1 = test system: CAKI-1
MDA-MB-435 = test system: MDA-MB-435
ACHN = test system: ACHN

| Compound | GI50 (MDA-MB-231) | GI50 (HOP-92) | GI50 (HT-29) | GI50 (SF-539) | GI50 (SF-268) | GI50 (UACC-62) | GI50 (SF-295) | GI50 (K562) | GI50 (RXF 393) | GI50 (MOLT-4) | GI50 (HCT-15) [µM] | GI50 (SK-OV-3) | GI50 (T47D) | GI50 (RPMI-8226) | GI50 (Hs-578T) | GI50 (UACC-257) | GI50 (786-0) | GI50 (CAKI-1) | GI50 (MDA-MB-435) | GI50 (ACHN) |
| --- | --- | --- | --- | --- | --- | --- | --- | --- | --- | --- | --- | --- | --- | --- | --- | --- | --- | --- | --- | --- |
| N#CC(C#N)=NNc1ccc2cn[nH]c2c1 | > 100 µM (inactive) | 37.1 µM (inactive) | 91.2 µM (inactive) | 70.8 µM (inactive) | 36.3 µM (inactive) | > 100 µM (inactive) | > 100 µM (inactive) | 15.7 µM (inactive) | 26.6 µM (inactive) | 21.5 µM (inactive) | 83.2 | > 100 µM (inactive) | 35.7 µM (inactive) | 26.2 µM (inactive) | 24.8 µM (inactive) | 20.4 µM (inactive) | 43.6 µM (inactive) | 29.6 µM (inactive) | 34.3 µM (inactive) | 33.1 µM (inactive) |
| O=c1c2ccccc2nc(-c2ccc(Cl)cc2)n1O | > 100 µM (inactive) | 15.6 µM (inactive) | 45.7 µM (inactive) | 23.8 µM (inactive) | 18.8 µM (inactive) | 35.9 µM (inactive) | 27.5 µM (inactive) | 22.9 µM (inactive) | 26.7 µM (inactive) | 17.9 µM (inactive) | 9.55 | 28.2 µM (inactive) | > 100 µM (inactive) | 26.9 µM (inactive) | 76 µM (inactive) | 24.9 µM (inactive) | 22.2 µM (inactive) | 15.2 µM (inactive) | 26.5 µM (inactive) | 22.5 µM (inactive) |
| CCOC(=O)c1oc2ccc([N+](=O)[O-])c3c2c1CCC3 | 36.5 µM (inactive) | 17.4 µM (inactive) | > 100 µM (inactive) | 19 µM (inactive) | 27.2 µM (inactive) | 13.8 µM (inactive) | 23.9 µM (inactive) | > 69.7 µM (inactive) | 26 µM (inactive) | > 100 µM (inactive) | 97.9 | 9.89 µM (inactive) | > 31.6 µM (inactive) | > 100 µM (inactive) | 29.2 µM (inactive) | > 82 µM (inactive) | 25.6 µM (inactive) | 61.4 µM (inactive) | > 39.3 µM (inactive) | 58.3 µM (inactive) |
| CN1C(=O)C23CC4=CC=CC(O)C4N2C(=O)C1(CO)SS3 (stereo not given) | 0.199 µM (active) | 0.165 µM (active) | 0.0188 µM (active) | 0.0204 µM (active) | 0.207 µM (active) | 0.179 µM (active) | 0.181 µM (active) | 0.139 µM (active) | 0.179 µM (active) | 0.134 µM (active) | 0.0845 | 1.26 µM (inactive) | 0.183 µM (active) | 0.163 µM (active) | 0.39 µM (active) | 0.299 µM (active) | 0.084 µM (active) | 0.308 µM (active) | 0.224 µM (active) | 0.174 µM (active) |
| Clc1ccc(-c2nn3c(CCCCCCCCc4nnc5sc(-c6ccc(Cl)cc6)nn45)nnc3s2)cc1 | 27 µM (inactive) | 31 µM (inactive) | 12.4 µM (inactive) | 19.9 µM (inactive) | 23.2 µM (inactive) | 32.4 µM (inactive) | 17.6 µM (inactive) | 20 µM (inactive) | 14.9 µM (inactive) | 7.69 µM (inactive) | 26.3 | 30.1 µM (inactive) | 4.67 µM (inactive) | 10.3 µM (inactive) | 27.2 µM (inactive) | 12.3 µM (inactive) | 20.1 µM (inactive) | 16.3 µM (inactive) | 17 µM (inactive) | 30.1 µM (inactive) |
| CC1=NN(c2nc(N)nc(/C(C#N)=C/c3ccncc3)n2)C(C)(C)C1 | > 100 µM (inactive) | > 100 µM (inactive) | > 100 µM (inactive) | > 100 µM (inactive) | > 100 µM (inactive) | > 100 µM (inactive) | > 100 µM (inactive) | 13.5 µM (inactive) | 32 µM (inactive) | > 100 µM (inactive) | > 100 | > 100 µM (inactive) | > 100 µM (inactive) | > 100 µM (inactive) | > 100 µM (inactive) | > 100 µM (inactive) | > 100 µM (inactive) | > 100 µM (inactive) | > 100 µM (inactive) | > 100 µM (inactive) |
| COc1ccccc1Nc1nc(N)nc(N)c1N | 29.4 µM (inactive) | > 100 µM (inactive) | 45.4 µM (inactive) | 50.6 µM (inactive) | 64.1 µM (inactive) | 57.5 µM (inactive) | 28.6 µM (inactive) | 45.1 µM (inactive) | > 100 µM (inactive) | 14.7 µM (inactive) | 62.1 | > 100 µM (inactive) | 58.5 µM (inactive) | 34.4 µM (inactive) | > 100 µM (inactive) | 60.3 µM (inactive) | 33.4 µM (inactive) | 58.7 µM (inactive) | 27.5 µM (inactive) | > 100 µM (inactive) |
| O=C(Nc1sccc1S(=O)(=O)c1ccc(Cl)cc1)c1ccc(Cl)cc1Cl | > 100 µM (inactive) | > 93.1 µM (inactive) | > 76.2 µM (inactive) | > 100 µM (inactive) | > 100 µM (inactive) | > 62.2 µM (inactive) | 37.8 µM (inactive) | > 53.3 µM (inactive) | > 100 µM (inactive) | > 85.9 µM (inactive) | > 100 | > 100 µM (inactive) | 19.1 µM (inactive) | 10.7 µM (inactive) | > 100 µM (inactive) | 23.4 µM (inactive) | > 100 µM (inactive) | > 100 µM (inactive) | 14.5 µM (inactive) | > 100 µM (inactive) |
| CN1CCN(CCCCN2c3ccccc3Sc3ccc(N=[N+]=[N-])cc32)CC1 | 4.3 µM (inactive) | 2.75 µM (inactive) | 2.07 µM (inactive) | 7.35 µM (inactive) | 9.71 µM (inactive) | 2.08 µM (inactive) | 12.2 µM (inactive) | 1.89 µM (inactive) | 5.16 µM (inactive) | 2.41 µM (inactive) | 7.36 | > 10 µM (inactive) | 14.9 µM (inactive) | 2.36 µM (inactive) | 7.31 µM (inactive) | 2.06 µM (inactive) | 7.76 µM (inactive) | 7.29 µM (inactive) | 2.07 µM (inactive) | 8.65 µM (inactive) |
| N/C(COc1ccc(Cl)cc1)=N\NC(=O)c1ccncc1 | > 100 µM (inactive) | 58.9 µM (inactive) | > 100 µM (inactive) | > 100 µM (inactive) | > 100 µM (inactive) | > 100 µM (inactive) | > 100 µM (inactive) | > 100 µM (inactive) | 35.9 µM (inactive) | > 100 µM (inactive) | 55.6 | > 100 µM (inactive) | 62.4 µM (inactive) | 39.4 µM (inactive) | > 100 µM (inactive) | 72.4 µM (inactive) | 54.3 µM (inactive) | > 100 µM (inactive) | > 100 µM (inactive) | > 100 µM (inactive) |
| COC(=O)c1c(C)nc(C)c(N=O)c1-c1ccccc1C(F)(F)F | 18 µM (inactive) | 17.3 µM (inactive) | 15.7 µM (inactive) | 20.7 µM (inactive) | 15.8 µM (inactive) | 27.6 µM (inactive) | > 100 µM (inactive) | 8.41 µM (inactive) | 15.3 µM (inactive) | 6.25 µM (inactive) | 20.3 | > 100 µM (inactive) | 17.3 µM (inactive) | 73.8 µM (inactive) | 19 µM (inactive) | 14 µM (inactive) | 17.6 µM (inactive) | 11 µM (inactive) | 22.3 µM (inactive) | 32.9 µM (inactive) |
| Cc1ccc([N+](=O)[O-])cc1S(=O)(=O)Nc1ccc(C(=O)/C=C/c2cccs2)cc1 | 16.3 µM (inactive) | 27.9 µM (inactive) | 18.9 µM (inactive) | 27.2 µM (inactive) | 32 µM (inactive) | 16.3 µM (inactive) | 32.7 µM (inactive) | 29 µM (inactive) | 17.7 µM (inactive) | 22.2 µM (inactive) | 23.4 | 44.1 µM (inactive) | 25.6 µM (inactive) | 20.7 µM (inactive) | 36.3 µM (inactive) | 20.5 µM (inactive) | 18.4 µM (inactive) | 16.2 µM (inactive) | 17.6 µM (inactive) | 29.4 µM (inactive) |
| CC(=N)OC1CC2CCC1(C)C2(C)C (stereo not given) | > 100 µM (inactive) | > 100 µM (inactive) | > 100 µM (inactive) | > 100 µM (inactive) | > 100 µM (inactive) | > 100 µM (inactive) | > 100 µM (inactive) | > 100 µM (inactive) | > 100 µM (inactive) | > 100 µM (inactive) | > 100 | > 100 µM (inactive) | > 100 µM (inactive) | > 100 µM (inactive) | > 100 µM (inactive) | > 100 µM (inactive) | > 100 µM (inactive) | > 100 µM (inactive) | > 100 µM (inactive) | > 100 µM (inactive) |
| COC(=O)CCC(NC(=O)OC(C)(C)C)C(=O)NC(Cc1ccc([N+](=O)[O-])cc1)C(=O)NCC(=O)OCc1ccccc1 (stereo not given) (Boc-Glu(OMe)-[Phe(4-NO2)]-Gly-OBn; configuration not given here) | > 60 µM (inactive) | 42.4 µM (inactive) | > 100 µM (inactive) | 28.4 µM (inactive) | 37.2 µM (inactive) | > 31.6 µM (inactive) | > 48.5 µM (inactive) | > 100 µM (inactive) | 26.9 µM (inactive) | > 100 µM (inactive) | > 100 | > 82.2 µM (inactive) | > 100 µM (inactive) | > 100 µM (inactive) | 23 µM (inactive) | > 100 µM (inactive) | 45.5 µM (inactive) | > 65.6 µM (inactive) | > 100 µM (inactive) | > 100 µM (inactive) |
